# Assay results as given in ChEMBL document CHEMBL3045263, “Novel 2-thiopyrimidine derivatives as CDK2 inhibitors: molecular modeling, synthesis, and anti-tumor activity evaluation” (Med Chem Res, 2013).
# System: HeLa
# Assay: Antitumor activity against Homo sapiens (human) HeLa cells assessed as inhibition of cell proliferation after 48 hr by SRB assay
# Type: functional, cell-based
row,IC50,Structure (SMILES)
1,41 nM,COc1ccc(-c2nc(Nc3ccc(S(N)(=O)=O)cc3)nc(-n3nc(C)cc3C)c2C#N)cc1OC
2,46 nM,COc1ccc(-c2nc(Nc3ccc(S(N)(=O)=O)cc3)nc(N3N=C(C)CC3=O)c2C#N)cc1OC
3,48 nM,COc1ccc(-c2nc(Nc3ccc(S(N)(=O)=O)cc3)n3c(C)nnc3c2C#N)cc1OC
4,39 nM,COc1ccc(-c2nc(Nc3ccc(S(N)(=O)=O)cc3)n3nnnc3c2C#N)cc1OC
5,42 nM,CCOC1=NN(c2nc(Nc3ccc(S(N)(=O)=O)cc3)nc(-c3ccc(OC)c(OC)c3)c2C#N)C(=O)C1
6,47 nM,COc1ccc(-c2nc(Nc3ccc(S(N)(=O)=O)cc3)n3c(=O)[nH]nc3c2C#N)cc1OC
7,42 nM,COc1ccc(C2=C(C#N)C3=NCC(=O)N3C(Nc3ccc(S(N)(=O)=O)cc3)=N2)cc1OC
8,16 nM,COc1cccc2c1C(=O)c1c(O)c3c(c(O)c1C2=O)C[C@@](O)(C(=O)CO)C[C@@H]3O[C@H]1C[C@H](N)[C@H](O)[C@H](C)O1 [DOXORUBICIN]
